Laboratory results reported in article PMC11201061, “Mechanistic Study of Antimicrobial Effectiveness of Cyclic Amphipathic Peptide [R4W4] against Methicillin-Resistant Staphylococcus aureus Clinical Isolates” (Antibiotics, 2024).
In brackets after ≈: the same amount, converted by molar mass. Each block holds one compound with its values, some of them ahead of it.

Experiments:
MRSA USA300 [1] = experiment: microbe, parasite or virus in culture; details: MRSA USA300, overnight 37 °C, duplicate
Description: The interaction of [R4W4], melittin, and vancomycin with LTA in the presence of MRSA was determined using a microbroth dilution assay. Two-fold serial dilution was used to achieve a 100 μL final concentration of the antibacterial agents in a 96 microplate well. A 360 μL S. aureus LTA (Sigma Aldrich stock 5 mg/mL) was added to 17.64 mL MHB containing MRSA (5 x 10^5 CFU/mL) to achieve the final concentration of S. aureus LTA 100 μg/mL. Then, 100 μL aliquots of MHB (MRSA (5 × 10^5 CFU/mL) and 100 μg/mL S. aureus LTA) were added to the 96 microtiter wells containing the antibacterial agents. The microplate was incubated overnight at 37 °C to obtain the MICs. Controls were bacteria grown in the presence of LTA alone and in MHB alone.

E. coli 25922 = experiment: Checkered board synergy assay with gentamicin; format: cell-based, Escherichia coli
Description: (§1) An amount of 100 µL of [R4W4] peptide test solution at a final concentration of 512 µg/mL was added to each well A-G column 1 in plate A using a multi-channel pipette. A 50 µL MH Broth was added to micro-plate well A-G columns 2–9. Using a multi-channel pipette, a two-fold serial dilution was performed by removing 50 µL solution from column 1 and was added to column 2 with thorough mixing. The micro-pipette was discarded after each transfer. The last portion after column 9 was discarded. In another microplate, 100 µL MHB was added to well B-G columns 1–11 using a multi-channel pipette. A 200 µL gentamicin test solution 512 µg/mL was added to row A, columns 1–11. A two-fold serial dilution was performed by removing 100 µL from rows A to B. The last portion was discarded. Using eight multi-channel pipettes, 50 µL of gentamicin test solution was transferred in the ordinate column A-G row 1 to the first microplate. The plate was incubated at 37 °C for 18–24 h. The fractional inhibitory concentration (FIC) of the antibacterial agents and the fractional inhibitory concentration index (FICI) of the two antibacterial agents were determined to evaluate the synergistic interaction. The FICI was interpreted as follows: FICI ≤ 0.5, synergy; 0.5 < FICI ≤ 1, partial synergy; 1 ≤ FICI < 4, additive effect or indifference; 4 ≤ FICI antagonism and calculated from the mean values from multiple experiments.

MRSA USA300 [2] = experiment: Checkered board synergy assay with gentamicin; format: cell-based, Staphylococcus aureus
Description: as §1

MRSA USA300 [3] = experiment: microbe, parasite or virus in culture
Description: MRSA USA300 bacteria from −80 °C freezer stock were cultured on an LB agar plate overnight. One bacteria colony was added to a 6 mL fresh MHB with constant shaking at 200 rpm at 37 °C. The bacteria were transferred daily by inoculating 10 μL of stationary-phase culture into […] of MHB in a 1 mL cap-clipped Eppendorf tube. Then, 20 μL of bacteria aliquot was added to […] of MHB broth, with or without [R4W4], at a final concentration of the MIC overnight in an […] at 37 °C for five transfers. […] […] Experiments were performed in triplicates. Every time we increased the concentration of [R4W4], a sample of the induction generation was inoculated into 20% (vol/vol) glycerol and stored at −70 °C. The final MIC values of [R4W4], vancomycin, and levofloxacin were determined by modified microbroth dilution assay.

Structure (SMILES): CC[C@H](C)[C@H](NC(=O)CN)C(=O)NCC(=O)N[C@@H](C)C(=O)N[C@H](C(=O)N[C@@H](CC(C)C)C(=O)N[C@@H](CCCCN)C(=O)N[C@H](C(=O)N[C@@H](CC(C)C)C(=O)N[C@H](C(=O)N[C@H](C(=O)NCC(=O)N[C@@H](CC(C)C)C(=O)N1CCC[C@H]1C(=O)N[C@@H](C)C(=O)N[C@@H](CC(C)C)C(=O)N[C@H](C(=O)N[C@@H](CO)C(=O)N[C@@H](Cc1c[nH]c2ccccc12)C(=O)N[C@H](C(=O)N[C@@H](CCCCN)C(=O)N[C@@H](CCCNC(=N)N)C(=O)N[C@@H](CCCCN)C(=O)N[C@@H](CCCNC(=N)N)C(=O)N[C@@H](CCC(N)=O)C(=O)N[C@@H](CCC(N)=O)C(N)=O)[C@@H](C)CC)[C@@H](C)CC)[C@@H](C)O)[C@@H](C)O)C(C)C)C(C)C [melittin, reference compound]
MIC in the presence of LTA (MRSA USA300 [1]; 100 μg/mL S. aureus LTA in MHB): 32 µg/mL
MIC in the absence of LTA (MRSA USA300 [1]; MHB): 8 µg/mL

MIC(B+A) (gentamicin in combination with [R4W4]) (E. coli 25922; E. coli 25922, checkered board): 0.19 µg/mL
MICB (gentamicin alone) (E. coli 25922; E. coli 25922, checkered board): 0.75 µg/mL
reduction in MIC value in combination (E. coli 25922; E. coli, [R4W4] + gentamicin combination versus alone): approximately 4 fold
MIC(B+A) (gentamicin in combination with [R4W4]) (MRSA USA300 [2]; MRSA USA300, checkered board): 0.05 µg/mL
MICB (gentamicin alone) (MRSA USA300 [2]; MRSA USA300, checkered board): 0.09 µg/mL
reduction in MIC value in combination (MRSA USA300 [2]; MRSA, [R4W4] + gentamicin combination versus alone): ~ 2 fold
Structure (SMILES): CNC(C)C1CCC(N)C(OC2C(N)CC(N)C(OC3OCC(C)(O)C(NC)C3O)C2O)O1 (stereo not shown) [Gentamicin, gentamicin, reference compound]
FICB (E. coli 25922; E. coli 25922, fractional inhibitory concentration of gentamicin): 0.25
FICB (MRSA USA300 [2]; MRSA USA300, fractional inhibitory concentration of gentamicin): 0.56

Structure (SMILES): C[C@H]1COc2c(N3CCN(C)CC3)c(F)cc3c(=O)c(C(=O)O)cn1c23 [levofloxacin, Levofloxacin]
MIC against index isolate (no serial passage) (MRSA USA300 [3]; MRSA USA300 index strain, MIC in duplicate): 1 µg/mL (≈ 2.77 µM)
change in MIC after serial passage (MRSA USA300 [3]; MRSA USA300 passaged versus index strain): 2 folds
MIC (MRSA USA300 [3]; Staphylococcus aureus, MRSA|USA300, read-out: MIC against serial passaged [R4W4]-resistant isolate): 2 µg/mL (≈ 5.53 µM)
